{
  "source": "patent US12514883B2",
  "about": "“Compositions and methods for modulating lipid and steroid metabolism” (The Regents of the University of California, priority 2019, dated 2026)",
  "key": {"T. sanguinis MOL361 [1]": {"system": "T. sanguinis MOL361", "assay": "Turicibacter colonization of antibiotic-treated mice (FISH, 16S rDNA)", "format": "in vivo"}, "CUW_0748 [2]": {"system": "CUW_0748", "assay": "[3H]5-HT uptake in B. thetaiotaomicron expressing CUW_0748", "format": "cell-based", "description": "The vector was transformed into E. coli with selection using 100 ug/ml ampicillin and conjugated into B. theta using the E. coli helper plasmid RK231 with 50 ug/ml kanamycin selection. E. coli was killed using 200 ug/ml gentamicin and transconjugant strains were selected using 5 ug/ml erythromycin. Successful conjugation and gene expression were confirmed by PCR and qPCR for CUW_0748 in DNA and RNA extracted from B. theta clones. T. sanguinis or B. theta were cultured anaerobically as described above and subcultured for 15-17 h to reach the stationary phase. […] For T. sanguinis, all uptake reactions were performed at room temperature. For B. theta, uptake reactions were performed at either room temperature or 37° C. Uptake reactions were terminated by washing in ice cold Kreb-Ringer's buffer. Washed T. sanguinis was trapped through 0.45 um PVDF filters on MultiScreenHTS plates connected to a vacuum manifold (EMD Millipore). For B. theta, washed cells were either trapped through 0.45-μm PVDF filters or lysed by incubating in TE buffer plus triton and lysozyme. Extracted filters or lysed cells were incubated in 4 ml Filter Count scintillation fluid (Perkin Elmer) for 1 hour at room temp, and radioactivity was measured using a liquid scintillation counter (Beckman LS6500)."}, "[3]": {"assay": "Fecal 5-HT levels after 5-HT in drinking water (ELISA)", "format": "in vivo, mice", "description": "(§1) Water was supplemented with 5-HT (Sigma Aldrich) at 1.5 mg/ml provided ad libitum to mice for 2 weeks. The amount of water consumed and mouse weight were measured on days 3, 7, 10 and 14 of treatment. Mice were sacrificed one day after treatment for 5-HT assays and fecal 16S rDNA profiling was conducted as described below.\nBlood samples were collected by cardiac puncture and spun through SST vacutainers (Becton Dickinson) for serum separation. […] Serotonin levels were detected by ELISA according to the manufacturer's instructions (Eagle Biosciences). Readings from tissue samples were normalized to total protein content as detected by BCA assay or the 660 nm Protein Assay (Thermo Pierce).\nSPF mice were treated with ampicillin, gentamicin, neomycin and vancomycin (AGNV) in their drinking water at 0.5 g/L for 4 days. […] 5-HT drinking water concentration was determined by calculating the same molar concentration as Flx in drinking water. […] Three days after the final gavage, mice were euthanized by CO2 and the small and large intestines were collected for fluorescence in situ hybridization (FISH) as described below and lumenal contents from the small and large intestines were harvested for 16S rDNA sequencing. […] Tissues were collected and analysed 3 d after the final gavage. […]"}, "[4]": {"system": "Turicibacter sanguinis MOL361", "assay": "T. sanguinis growth curve and viability", "format": "cell-based", "description": "Scale bars: 10 μm. […] Scale bar denotes 100 um.\nCell density of T. sanguinis at 6, 12, 18, 30, 36, 45 and 48 hours of growth in the presence of 200 uM 5-HT, Flx or both 5-HT and Flx. Treatments were added at the start of culture (e.g. t=0 h).\n(§2) Turicibacter sanguinis MOL361 (DSM-14220, DSMZ) was grown in Schaedler's Broth (BD Biosciences) in an anaerobic chamber of 10% carbon dioxide, 5% hydrogen, and balanced nitrogen. Bacteroides thetaiotaomicron (ATCC 29148) was grown in Brain Heart Infusion media (BD Biosciences) supplemented with 5 ug/ml hemin (Frontier Scientific) and 0.5 ug/ml vitamin K1 (Sigma Aldrich) under the same anaerobic conditions. Mouse- and human-derived spore-forming bacterial consortia were isolated by chloroform treatment and propagated in mice."}, "T. sanguinis [5]": {"system": "T. sanguinis", "assay": "Bacterial transcriptomic analysis of T. sanguinis", "format": "cell-based, Turicibacter sanguinis", "description": "T. sanguinis was cultured anaerobically as described above and subcultured to mid-log-phase. […] Bacteria were washed with PBS and lysed in TE buffer containing 1.2% Triton X-100 and 15 mg/ml lysozyme. RNA was extracted using the RNAeasy Mini kit with on-column genomic DNA-digest (Qiagen). cDNA synthesis was performed using the qScript cDNA synthesis kit (Quantabio). RNA quality of RIN>8.0 was confirmed using the 4200 Tapestation system (Agilent). rRNA were removed with the Ribo-Zero Bacterial kit (Illumina), RNA was prepared using the TruSeq Stranded RNA kit (Illumina) and 2×75 bp paired end reads were sequenced using the Illumina HiSeq platform by the UCLA Neuroscience Genomics Core. The bacterial RNAseq analysis package Rockhopper was used for quality filtering, mapping against the T. sanguinis PC909 genome and differential expression analysis. […] Heatmaps containing differentially expressed genes with adjusted p<0.05 and coefficient of variation (standard deviation/mean)<3 were generated using the pheatmap package for R. GO term enrichment analysis of differentially expressed genes with adjusted p<0.05 was conducted using DAVID. Functional protein networks were generated with differentially expressed genes with adjusted p<0.05 using STRING. Bacterial FM 4-64 staining and imaging. […] Cells were washed with PBS, fixed in 4% paraformaldehyde, and stained with FM4-64 (5 μg ml−1) and 4′,6-diamidino-2-phenylindole (DAPI; 0.2 μg ml−1) according to the manufacturer's instructions. Cells were wet-mounted on glass slides and cover slips. Images were acquired at 63× using the Zeiss LSM 780 confocal microscope. Images were analysed using Fiji software51 by a researcher blinded to the experimental group. FM 4-64 puncta were counted manually based on circularity and fluorescence intensity. Counts were normalized to cell area, as determined by thresholding of DAPI staining."}, "T. sanguinis [6]": {"system": "T. sanguinis", "assay": "APP+ uptake assay in T. sanguinis", "format": "cell-based, Turicibacter sanguinis", "conditions": "200 uM pre-treatment for 30 min", "description": "(§3) T. sanguinis and B. theta were cultured anaerobically as described above and subcultured for 15-17 h to reach the stationaryphase. Bacterial APP+ transport activity was measured according to the manufacturer's instructions using the Neurotransmitter Transporter Uptake Assay Kit (Molecular Devices). […] Then cells were treated with APP+ for 4 hours at 37° C. Intracellular fluorescence signal was measured at 520 nm using a multimodal plate reader (Biotek Synergy H1). Bacterial suspensions were mounted on slides and imaged using an epifluorescence microscope (EVOS). Images of B. theta were brightened by 90% to resolve fluorescence signal."}, "[7]": {"system": "gut microbiota (Clostridia)", "assay": "Fecal 16S rDNA microbiota profiling after oral 5-HT supplementation", "format": "in vivo, mice", "description": "as §1\n(§4) Bacterial genomic DNA was extracted from mouse fecal samples using the MoBio PowerSoil Kit. The library was generated according to methods adapted from Capraso J. G., et al., PNAS 108 Suppl 1, 4516-4522 (2011). The V4 regions of the 16S rDNA gene were PCR amplified using individually barcoded universal primers and 30 ng of the extracted genomic DNA. The PCR reaction was set up in triplicate, and the PCR product was purified using the Qiaquick PCR purification kit (Qiagen). In total, 250 ng of purified PCR product from each sample was pooled and sequenced by Laragen, Inc. using the Illumina MiSeq platform and 2×250 bp reagent kit for paired-end sequencing. Operational taxonomic units (OTUs) were chosen by open reference OTU picking based on 97% sequence similarity to the Greengenes 13_5 database. Taxonomy assignment and rarefaction were performed using QIIME1.8.0. Metagenomes were inferred from closed reference OTU tables using PICRUSt."}, "CUW_0748 [8]": {"system": "CUW_0748", "assay": "APP+ uptake in B. thetaiotaomicron expressing CUW_0748", "format": "cell-based", "description": "as §3"}, "T. sanguinis [9]": {"system": "T. sanguinis", "assay": "[3H]5-HT uptake assay in T. sanguinis", "format": "cell-based, Turicibacter sanguinis", "conditions": "30 min pre-treatment"}, "T. sanguinis MOL361 [10]": {"system": "T. sanguinis MOL361", "assay": "5-HT levels in culture supernatant of T. sanguinis grown in Schaedler broth", "format": "cell-based, Turicibacter sanguinis", "conditions": "200 uM fluoxetine, 0-36 hours of growth", "description": "as §2"}, "[11]": {"assay": "Lipid clinical chemistry analysis of serum", "format": "in vivo", "conditions": "antibiotic-treated mice gavaged with T. sanguinis pretreated with 200 μM 5-HT+Flx", "text": "Serum samples were collected from SPF, germfree, Turicibacter-monocolonized or Turicibacter-enriched mice and submitted to Charles River Clinical Pathology for analysis of the lipid species, including total cholesterol, free fatty acids, high-density lipoprotein, low-density lipoprotein and total triglycerides."}, "fecal microbiota": {"system": "fecal microbiota", "assay": "Fluoxetine treatment of SPF mice, fecal 16S rDNA sequencing", "format": "in vivo", "description": "as §4\nFecal samples were harvested on day 0, 1, 4, 7 or 14 of treatment as indicated in figure legends and processed for 16S rDNA sequencing as described above."}, "T. sanguinis [12]": {"system": "T. sanguinis", "assay": "[3H]NE uptake assay in T. sanguinis", "format": "cell-based, Turicibacter sanguinis", "conditions": "30 min pre-treatment, 200 uM fluoxetine", "description": "T. sanguinis or B. theta were cultured anaerobically as described above and subcultured for 15-17 h to reach the stationary phase. […] Cells were then incubated with 1 μM tritiated 5-HT (plus 0-500 μM unlabelled 5-HT for dose-dependent assays), NE or Trp (PerkinElmer). For T. sanguinis, all uptake reactions were performed at room temperature. For B. theta, uptake reactions were performed at either room temperature or 37° C. Uptake reactions were terminated by washing in ice cold Kreb-Ringer's buffer. Washed T. sanguinis was trapped through 0.45 um PVDF filters on MultiScreenHTS plates connected to a vacuum manifold (EMD Millipore). For B. theta, washed cells were either trapped through 0.45-μm PVDF filters or lysed by incubating in TE buffer plus triton and lysozyme. Extracted filters or lysed cells were incubated in 4 ml Filter Count scintillation fluid (Perkin Elmer) for 1 hour at room temp, and radioactivity was measured using a liquid scintillation counter (Beckman LS6500)."}, "[13]": {"conditions": "SPF mice gavaged with fluoxetine"}},
  "data": [
    {"smiles": "NCCc1c[nH]c2ccc(O)cc12", "note": "[5-HT, 5-hydroxytryptamine]", "values": [
      {"measurement": "T. sanguinis levels/colonization in the small intestine", "setting": "T. sanguinis MOL361 [1]; antibiotic-treated SPF mice, bacterial pre-treatment plus same treatment in drinking water", "value": "detectable T. sanguinis colonization"},
      {"measurement": "T. sanguinis competitive colonization, bacterial pre-treatment only", "setting": "T. sanguinis MOL361 [1]; antibiotic-treated mice, no supplementation in drinking water", "value": "promoted its competitive colonization"},
      {"measurement": "effect on 1 μM [3H]5-HT uptake conferred by CUW_0748", "setting": "CUW_0748 [2]", "value": "inhibited"},
      {"measurement": "increase of fecal 5-HT levels relative to vehicle-treated controls", "setting": "[3]; SPF mice, 1.5 mg/ml 5-HT in the drinking water for 2 weeks", "value": 642, "unit": "fold"},
      {"measurement": "elevation of fecal 5-HT levels over vehicle", "setting": "[3]; antibiotic-treated mice, 5-HT 24 μg/ml in drinking water", "value": "approximately 6 fold"},
      {"measurement": "T. sanguinis survival/viability after short-term (acute) exposure", "setting": "[4]; 4 h exposure, 200 μM", "value": "not affected"},
      {"measurement": "effect on T. sanguinis gene expression pathways vs vehicle", "setting": "T. sanguinis [5]; 200 uM 5-HT, 4 hr", "value": "downregulated the expression of genes that clustered into pathways for cell differentiation, morphogenesis and sporulation"},
      {"measurement": "number of bacterial genes with significantly altered expression", "setting": "T. sanguinis [5]; 4 hr exposure, 200 uM, vs vehicle", "value": 71, "unit": "genes"},
      {"measurement": "differentially expressed genes (q<0.05) downregulated relative to vehicle", "setting": "T. sanguinis [5]; T. sanguinis treated with 5-HT", "value": 54, "unit": "genes"},
      {"measurement": "effect on APP+ uptake (import) by T. sanguinis", "setting": "T. sanguinis [6]", "value": "partially decreased"},
      {"measurement": "combined relative abundance of Clostridiales, Clostridiaceae, Ruminococcus and Ruminococcaceae (mean±S.E.M.)", "setting": "[7]; 5-HT-supplemented mice, fecal microbiota", "value": "86.2±5.8", "unit": "%"},
      {"measurement": "increase of combined relative abundance of Clostridiales, Clostridiaceae, Ruminococcus and Ruminococcaceae", "setting": "[7]; SPF mice, 1.5 mg/ml 5-HT in drinking water 2 weeks, vs SPF mice", "value": 8.4, "unit": "fold"},
      {"measurement": "effect on species of Clostridia in fecal microbiota", "setting": "[7]; oral 5-HT supplementation, SPF mice", "value": "substantially enriched"},
      {"measurement": "effect on APP+ uptake conferred by CUW_0748", "setting": "CUW_0748 [8]", "value": "inhibited"}
    ]},
    {"smiles": "COc1cc2c(cc1OC)C1CC(=O)C(CC(C)C)CN1CC2", "note": "(centres unmarked) [tetrabenazine]", "values": [
      {"measurement": "effect on [3H]5-HT uptake by T. sanguinis", "setting": "T. sanguinis [9]", "value": "not observed"}
    ]},
    {"smiles": "CNCCC(Oc1ccc(C(F)(F)F)cc1)c1ccccc1", "note": "(centres unmarked) [fluoxetine]", "values": [
      {"measurement": "effect on decrease of 5-HT levels in the media over time", "setting": "T. sanguinis MOL361 [10]", "value": "prevented"},
      {"measurement": "effect on T. sanguinis growth over long-term culture", "setting": "[4]; 200 uM, Schaedler broth, up to 48 hours", "value": "cytostatic effects"},
      {"measurement": "serum triglyceride levels compared with mice colonized with vehicle-treated T. sanguinis", "setting": "[11]", "value": "increased"},
      {"measurement": "change in T. sanguinis gene expression in the absence of 5-HT", "setting": "T. sanguinis [5]; fluoxetine alone", "value": "little change"},
      {"measurement": "effect on T. sanguinis gene expression compared with 5-HT-treated controls", "setting": "T. sanguinis [5]; fluoxetine with 5-HT, 4 hr", "value": "upregulated the expression of genes encoding proteins relevant to efflux transporters, ABC transporters and sporulation"},
      {"measurement": "effect on APP+ uptake (import) by T. sanguinis", "setting": "T. sanguinis [6]", "value": "partially decreased"},
      {"measurement": "Turicibacter in fecal microbiota", "setting": "fecal microbiota; SPF mice gavaged with 10 mg/kg fluoxetine", "value": "decreased"},
      {"measurement": "Clostridiaceae in fecal microbiota", "setting": "fecal microbiota; [13]", "value": "decreased"},
      {"measurement": "bacterial alpha diversity of fecal microbiota", "setting": "fecal microbiota; [13]", "value": "no significant differences"},
      {"measurement": "effect on bacterial uptake of norepinephrine ([3H]NE)", "setting": "T. sanguinis [12]", "value": "no effect"}
    ]},
    {"smiles": "NC[C@H](O)c1ccc(O)c(O)c1", "note": "[norepinephrine]", "values": [
      {"measurement": "effect on APP+ uptake (import) by T. sanguinis", "setting": "T. sanguinis [6]", "value": "modest, but not statistically significant, effect"}
    ]}
  ]
}
